Measured values published in patent publication US20130131128A1, “ASSOCIATION OF XANTHINE OXIDASE INHIBITORS AND ANGIOTENSIN II RECEPTOR ANTAGONISTS AND USE THEREOF” (MENARINI INTERNATIONAL OPERATIONS LUXEMBOURG S.A., priority 2010, published 2013).

Experiments:
[1] = tested on: spontaneously hypertensive rat (SHR); experiment: Plasma uric acid (uricemia) in potassium oxonate-induced hyperuricemia in spontaneously hypertensive rats; assay type: in vivo; settings: for Uricemia: SHR + K oxonate 250 mg/kg IP, 4 hours after last dose; for Δ Uricemia: SHR + K oxonate, difference vs Control + K oxonate; for Effect on hyperuricemia values (in words): oral, one week before potassium oxonate, 1-3-10 mg/kg, SHR
Procedure: (§1) Pharmacological activity of febuxostat and olmesartan medoxomil, alone or in association, was assessed in an experimental model of hyperuricemia in spontaneously hypertensive rat (SHR, Harlan Laboratories, Udine, Italy). Systolic pressure (SBP) was measured in non-anesthesized animals by means of a tail cuff sphygmomanometer (Blood Pressure Analysis System BP-2000, Visitech Systems, USA) equipped with an automatic system for data acquisition and processing.
(§2) All animals were preconditioned daily for 2 weeks to accustom them to instrumental measuring of the pressure before starting the test. Hyperuricemia was induced with administration of potassium oxonate (250 mg/kg IP, 2 hours after the last dose of drugs and 2 hours before the test), an uricase inhibitor capable of inducing experimental hyperuricemia. Plasma levels of uric acid were measured with a standard colorimetric enzymatic method. Febuxostat and/or olmesartan were administered orally once per day for 7 days, by gavage, at the doses of 1-3-10 mg/kg.
(§3) Parameters measured in conscious rats were systolic pressure (SBP) and plasma uric acid/urate levels (uricemia), as well as basal values, both after one week of treatment and 2 hours after administration of potassium oxonate. Blood was collected from a tail vein.
(§4) Uricemia and systolic pressure values were recorded 4 hours after the last dose of drugs or vehicle. Potassium oxonate (250 mg/kg IP) was administered 2 ore before the test. Each value is the average of 7-13 tests.

[2] = tested on: spontaneously hypertensive rat (SHR); experiment: Systolic pressure (SBP) by tail cuff sphygmomanometer in conscious spontaneously hypertensive rats; assay type: in vivo; settings: for SBP / Δ SBP: SHR + K oxonate; for SBP: 4 hours after last dose; for Δ SBP: difference vs Control + K oxonate; for Effect on systolic pressure (in words): 1-3-10 mg/kg per os, daily for 1 week, SHR
Procedure: as §1, §2, §3, §4

30 hypertensive subjects = settings: monotherapy, only teenagers; cited from earlier work
hyperuricemia = settings: clinical studies; cited from earlier work
[3] = 1 mg/kg day per os for one week
[4] = 3 mg/kg day per os for one week
[5] = 10 mg/kg day per os for one week

SMILES	Uricemia [1, 3] [mg/dL]	Δ Uricemia [1, 3] [mg/dL]	Uricemia [1, 4] [mg/dL]	Δ Uricemia [1, 4] [mg/dL]	Uricemia [1, 5] [mg/dL]	Δ Uricemia [1, 5] [mg/dL]	Effect on hyperuricemia values (in words) [1]	SBP [2, 3] [mmHg]	Δ SBP [2, 3] [mmHg]	SBP [2, 4] [mmHg]	Δ SBP [2, 4] [mmHg]	SBP [2, 5] [mmHg]	Δ SBP [2, 5] [mmHg]	Effect on systolic pressure (in words) [2]	Anti-hypertensive effect (in words) (30 hypertensive subjects)	Reduction of hyperuricemia compared with allopurinol (in words) (hyperuricemia)
CCCc1nc(C(C)(C)O)c(C(=O)OCc2oc(=O)oc2C)n1Cc1ccc(-c2ccccc2-c2nnn[nH]2)cc1 [Olmesartan, olmesartan medoxomil]	1.16 ± 0.11	-0.01	1.10 ± 0.12	-0.07	1.08 ± 0.07	-0.09	weakly active	217 ± 14	−22	202 ± 10	−37	180 ± 11	−59	reduced systolic pressure in a dose-dependent manner	–	–
Oc1ncnc2[nH]ncc12 [allopurinol]	–	–	–	–	–	–	–	–	–	–	–	–	–	–	has shown an anti-hypertensive effect	–
Cc1nc(-c2ccc(OCC(C)C)c(C#N)c2)sc1C(=O)O [Febuxostat, febuxostat]	1.02 ± 0.07	-0.15	0.78 ± 0.06	-0.39	0.49 ± 0.05	-0.68	reduced in a significant and dose-dependent manner the hyperuricemia values	234 ± 19	−5	229 ± 24	−10	228 ± 21	−11	slight inhibitory effect on systolic pressure	–	reduce hyperuricemia more effectively than allopurinol
